Experimental data: PubChem BioAssay (NCI)
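Briefly, cells in 96-well plates were exposed to five compound concentrations for 48 h, and endpoints were estimated by linear interpolation. GI50 is the concentration that inhibits growth by half. TGI is the concentration that stops growth completely.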

Columns and labels:
Assay in all cases: NCI tumour cell line growth inhibition, 48 h
SF-539 CNS = system: SF-539 CNS
SNB-19 CNS = system: SNB-19 CNS
NCI-H522 lung = system: NCI-H522 lung
HCC-2998 colon = system: HCC-2998 colon
HL-60(TB) leukemia = system: HL-60(TB) leukemia
SW-620 colon = system: SW-620 colon
A498 renal = system: A498 renal
M14 melanoma = system: M14 melanoma
CCRF-CEM leukemia = system: CCRF-CEM leukemia
EKVX NSCLC = system: EKVX NSCLC
OVCAR-5 ovarian = system: OVCAR-5 ovarian
SF-268 CNS = system: SF-268 CNS
DU-145 prostate = system: DU-145 prostate
SK-MEL-2 melanoma = system: SK-MEL-2 melanoma
HCT-15 colon = system: HCT-15 colon
IGROV1 ovarian = system: IGROV1 ovarian
SF-295 CNS = system: SF-295 CNS
SNB-75 CNS = system: SNB-75 CNS
LOX IMVI melanoma = system: LOX IMVI melanoma
SK-MEL-5 melanoma = system: SK-MEL-5 melanoma
CAKI-1 renal = system: CAKI-1 renal
786-0 renal = system: 786-0 renal
K-562 leukemia = system: K-562 leukemia
ACHN renal = system: ACHN renal
MDA-MB-231 breast = system: MDA-MB-231 breast
A549 NSCLC = system: A549 NSCLC
MOLT-4 leukemia = system: MOLT-4 leukemia
PC-3 prostate = system: PC-3 prostate

COc1cccc(S(=O)(=O)NC2=NCCN2C(=S)SN2CCn3c2nsc3=S)c1
GI50 (SF-539 CNS): 27.3 µM | TGI (SF-539 CNS): 70 µM | GI50 (SNB-19 CNS): 49.8 µM | TGI (SNB-19 CNS): > 100 µM | GI50 (NCI-H522 lung): 20.1 µM | TGI (NCI-H522 lung): 40.9 µM | GI50 (HCC-2998 colon): 41.5 µM | TGI (HCC-2998 colon): > 100 µM | GI50 (HL-60(TB) leukemia): 26.1 µM | TGI (HL-60(TB) leukemia): 79.4 µM | GI50 (SW-620 colon): 34 µM | TGI (SW-620 colon): > 100 µM | GI50 (A498 renal): 68.4 µM | TGI (A498 renal): > 100 µM | GI50 (M14 melanoma): 31.4 µM | TGI (M14 melanoma): > 100 µM | GI50 (CCRF-CEM leukemia): 32.1 µM | TGI (CCRF-CEM leukemia): > 100 µM | GI50 (EKVX NSCLC): 95.7 µM | TGI (EKVX NSCLC): > 100 µM | GI50 (OVCAR-5 ovarian): 23 µM | TGI (OVCAR-5 ovarian): 79.4 µM | GI50 (SF-268 CNS): 59.3 µM | TGI (SF-268 CNS): > 100 µM | GI50 (DU-145 prostate): 44.2 µM | TGI (DU-145 prostate): > 100 µM | GI50 (SK-MEL-2 melanoma): 68.2 µM | TGI (SK-MEL-2 melanoma): > 100 µM | GI50 (HCT-15 colon): 21.6 µM | TGI (HCT-15 colon): 43.7 µM | GI50 (IGROV1 ovarian): 27.2 µM | TGI (IGROV1 ovarian): 78.5 µM | GI50 (SF-295 CNS): > 100 µM | TGI (SF-295 CNS): > 100 µM | GI50 (SNB-75 CNS): 30 µM | TGI (SNB-75 CNS): 89.6 µM | GI50 (LOX IMVI melanoma): 13.2 µM | TGI (LOX IMVI melanoma): 26.5 µM | GI50 (SK-MEL-5 melanoma): 37.9 µM | TGI (SK-MEL-5 melanoma): > 100 µM | GI50 (CAKI-1 renal): 32 µM | TGI (CAKI-1 renal): 66.2 µM | GI50 (786-0 renal): 31.6 µM | TGI (786-0 renal): > 100 µM | GI50 (K-562 leukemia): 31.4 µM | TGI (K-562 leukemia): 92.3 µM | GI50 (ACHN renal): 15.6 µM | TGI (ACHN renal): 29.8 µM | GI50 (MDA-MB-231 breast): 28.1 µM | TGI (MDA-MB-231 breast): 96 µM | GI50 (A549 NSCLC): > 100 µM | TGI (A549 NSCLC): > 100 µM | GI50 (MOLT-4 leukemia): 32.5 µM | TGI (MOLT-4 leukemia): > 100 µM | GI50 (PC-3 prostate): 36.2 µM | TGI (PC-3 prostate): > 100 µM
